# Results published in US4154730A, “Novel 17-spirosultines” (Roussel Uclaf, priority 1976, dated 1979).
# Experiments:
# [1] = system: activity of monoacetate of aldosterone (urinary sodium/potassium ratio); assay: Antialdosteronic activity in surrenalectomized rats; assay type: in vivo, rat (Sprague Dawley); details: male surrenalectomized rats, test product 5 mg/kg subcutaneously, urine collected for 4 hours
# Protocol: Male rats of the Sprague Dawley strain weighing about 180 g were subjected to surrenalectomy and at this moment, the rats received a drink of physiological serum. After about 2 days, the animals were fasted for 16 hours and then received a drink of an aqueous 5% glucose solution. The test products were administered subcutaneously at about 16 hours in the form of a solution or suspension in a 0.25% aqueous carboxymethyl cellulose solution containing Tween 80. One hour later, the animals received on the one hand intraperitoneally a hydrosaline surcharge at a dose of 5 ml/per rat of a 0.9% physiological serum and on the other hand subcutaneously 1 μg/kg of the monoacetate of aldosterone in a 2.5% alcoholic solution. The rats were placed in diuresis cages without food or drink for 4 hours and after this time, a forced urination was effected by pressure on the bladder. The volume of the obtained urine was adjusted to 50 ml and the amounts of sodium and potassium present was determined by an autoanalyzer. The results are expressed as a percentage of inhibition of the activity of 1 μg/kg of subcutaneously injected monoacetate of aldosterone by the ratio of sodium concentration to potassium concentration of the surrenalectomized rats.
# [2] = target: T1, progesterone receptor (hormonal receptor of rabbit uterus cytosol) (Oryctolagus cuniculus, UniProt P06186); assay: Progestomimetic activity by the method of hormonal receptors: displacement of tritiated product R in uterus cytosol; assay type: binding; details: tritiated 17,21-dimethyl-19-nor-Δ4,9-pregnadiene-3,20-dione, 0° C., 2 hours, progesterone = 100
# T1 construct: The uterus was removed and homogenized in a buffered mixture; from tissue; host or cells: uterus cytosol (105,000 g supernatant) of impuberic rabbits primed with estradiol
# T1 sequence (P06186 1-930): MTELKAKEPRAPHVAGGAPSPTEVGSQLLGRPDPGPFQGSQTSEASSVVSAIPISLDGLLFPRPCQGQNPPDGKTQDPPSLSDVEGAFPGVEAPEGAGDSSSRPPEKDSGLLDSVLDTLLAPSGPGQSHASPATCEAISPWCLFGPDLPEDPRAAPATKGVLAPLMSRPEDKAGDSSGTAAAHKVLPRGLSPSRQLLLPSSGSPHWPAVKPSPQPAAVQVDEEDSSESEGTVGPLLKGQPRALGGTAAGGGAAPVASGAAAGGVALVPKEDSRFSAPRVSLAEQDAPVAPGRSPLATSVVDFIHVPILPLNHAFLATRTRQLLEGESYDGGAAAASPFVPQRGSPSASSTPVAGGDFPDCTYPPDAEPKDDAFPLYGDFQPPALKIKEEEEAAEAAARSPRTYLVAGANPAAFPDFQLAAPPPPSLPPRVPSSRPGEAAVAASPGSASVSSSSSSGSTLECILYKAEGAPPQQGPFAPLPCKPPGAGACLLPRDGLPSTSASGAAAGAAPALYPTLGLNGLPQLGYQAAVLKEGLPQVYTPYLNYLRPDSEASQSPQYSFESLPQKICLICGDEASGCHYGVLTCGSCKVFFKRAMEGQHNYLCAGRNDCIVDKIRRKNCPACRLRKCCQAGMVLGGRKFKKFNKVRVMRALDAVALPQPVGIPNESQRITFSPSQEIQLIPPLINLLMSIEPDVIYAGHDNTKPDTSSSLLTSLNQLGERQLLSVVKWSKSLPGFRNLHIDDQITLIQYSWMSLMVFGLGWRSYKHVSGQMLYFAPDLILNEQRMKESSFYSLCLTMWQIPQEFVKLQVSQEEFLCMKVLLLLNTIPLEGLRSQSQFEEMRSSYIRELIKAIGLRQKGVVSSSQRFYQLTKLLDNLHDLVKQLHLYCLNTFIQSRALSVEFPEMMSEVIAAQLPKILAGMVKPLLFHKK
# Protocol: Ster. Biochem., Vol. 6 (1975), p. 615-622 and Physiology and Genetics of Reproduction, part A (1975), p. 143-160]. Impuberic rabbits received percutaneously 25 γ of estradiol and 5 days later, the animals were killed. The uterus was removed and homogenized in a buffered mixture of 10 mM of tromethamine, 0.25 M of saccharose and sufficient hydrochloric acid for a pH of 7.4. The homogenate was centrifuged at 105,000 g for one hour and the liquid surnageant or cytosol was adjusted to obtain a dilution of 1:50 (weight of uterus to volume). […] B/T max. is the percentage of tritiated product R bound when no product was added and B/T min. is the percentage of tritiated product R bound when the maximum quantity of cold product R is added. The intersections of line I50 and the curves permit the determination of the CP and CX values. CP is the concentration of cold progesterone which inhibits by 50% the fixation of tritiated product R and CX is the concentration of test product which inhibits by 50% the fixation of tritiated product R. The relative affinity of the test product or RLA is determined by the formula [formula] and the results are reported in Table I.
Structure (SMILES),percentage of inhibition of the activity of 1 μg/kg of subcutaneously injected monoacetate of aldosterone (sodium/potassium ratio) [1],"RLA (relative affinity of the test product, from CP and CX) [2]"
"C[C@]12CCC3=C4CCC(=O)C=C4CC[C@H]3[C@@H]1CC[C@@]21CCS(=O)O1 (stereo partly drawn) [product A, B isomer of (17R) 2'-oxidospiro-[Δ^4,9-estradiene-17,5'-(1',2')-oxathiolane]-3-one]",88%,280
"C[C@]12C=CC3=C4CCC(=O)C=C4CC[C@H]3[C@@H]1CC[C@@]21CCS(=O)O1 (stereo partly drawn) [product B, B isomer of (17R) 2'-oxidospiro-[Δ^4,9,11-estratriene-17,5'-(1',2')-oxathiolane]-3-one]",,400
